# Assay results as given in the supplement of paper PMC11451515.
# Experiments:
# SEM cells [1] = test: cell viability relative to DMSO control; higher = less cytotoxic; conditions: 48 h
# Method in brief: (§1)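 Viability, reported as a per-plate percentage of DMSO wells with cell-free wells as background, came from CellTiter-Glo One luminescence. Reading took place after 48 h at 37°C. Before that, NOMO1 or SEM (500 cells/well) or P12-Ichikawa (1000 cells/well) leukemia cells, adapted for at least four passages in each medium, were seeded in 1536-well plates (5 μl) and pin-dosed with library compounds in DMSO, 47 μM to 0.79 nM over 11 threefold points.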
# NOMO1 = test: AUC of viability dose-response curve (% viability x log10 dose units); higher = less sensitive; conditions: 48 h
# Method in brief: (§2)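 Leukemia cells adapted to each medium were seeded in 1536-well plates (500 or 1000 cells/well) and given library compounds in DMSO for 48 h at 37°C. The 11 threefold doses spanned 47 μM to 0.79 nM, and CellTiter-Glo One luminescence was normalised per plate to DMSO and cell-free wells before four-parameter log-logistic fitting on log10 dose. Area under the curve was integrated with the trapezoidal rule, scaling curves above full viability and removing curves that failed quality control.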
# P12-Ichikawa [2] = test: as above; conditions: 48 h
# Method in brief: as §2
# SEM cells [3] = test: as above; conditions: 48 h
# Method in brief: as §2
# P12-Ichikawa [4] = test: cell viability relative to DMSO control; higher = less cytotoxic; conditions: HPLM + 10% dialyzed FBS, 48 h
# Method in brief: as §1
# [5] = HPLM + 10% dialyzed FBS, 0.000781 µM
# [6] = HPLM + 10% dialyzed FBS, 0.00234 µM
# [7] = HPLM + 10% dialyzed FBS, 0.00702 µM
# [8] = HPLM + 10% dialyzed FBS, 0.0211 µM
# [9] = HPLM + 10% dialyzed FBS, 0.0632 µM
# [10] = HPLM + 10% dialyzed FBS, 0.19 µM
# [11] = HPLM + 10% dialyzed FBS, 0.569 µM
# [12] = HPLM + 10% dialyzed FBS, 1.71 µM
# [13] = HPLM + 10% dialyzed FBS, 5.12 µM
# [14] = HPLM + 10% dialyzed FBS, 15.4 µM
# [15] = HPLM + 10% dialyzed FBS, 46.1 µM
# [16] = RPMI 5 mM glucose + 10% FBS, 0.000781 µM
# [17] = RPMI 5 mM glucose + 10% FBS, 0.00234 µM
# [18] = RPMI 5 mM glucose + 10% FBS, 0.00702 µM
# [19] = RPMI 5 mM glucose + 10% FBS, 0.0211 µM
# [20] = RPMI 5 mM glucose + 10% FBS, 0.0632 µM
# [21] = RPMI 5 mM glucose + 10% FBS, 0.19 µM
# [22] = RPMI 5 mM glucose + 10% FBS, 0.569 µM
# [23] = RPMI 5 mM glucose + 10% FBS, 1.71 µM
# [24] = RPMI 5 mM glucose + 10% FBS, 5.12 µM
# [25] = RPMI 5 mM glucose + 10% FBS, 15.4 µM
# [26] = RPMI 5 mM glucose + 10% FBS, 46.1 µM
# [27] = RPMI 5 mM glucose + 10% dialyzed FBS
Structure (SMILES),cell viability (SEM cells [1]; [5]),cell viability (SEM cells [1]; [6]),cell viability (SEM cells [1]; [7]),cell viability (SEM cells [1]; [8]),cell viability (SEM cells [1]; [9]),cell viability (SEM cells [1]; [10]),cell viability (SEM cells [1]; [11]),cell viability (SEM cells [1]; [12]),cell viability (SEM cells [1]; [13]),cell viability (SEM cells [1]; [14]),cell viability (SEM cells [1]; [15]),AUC of viability dose-response curve (NOMO1; HPLM + 10% dialyzed FBS),AUC of viability dose-response curve (NOMO1; RPMI 5 mM glucose + 10% FBS),AUC of viability dose-response curve (NOMO1; [27]),AUC of viability dose-response curve (P12-Ichikawa [2]; HPLM + 10% dialyzed FBS),AUC of viability dose-response curve (P12-Ichikawa [2]; RPMI 5 mM glucose + 10% FBS),AUC of viability dose-response curve (P12-Ichikawa [2]; [27]),AUC of viability dose-response curve (SEM cells [3]; HPLM + 10% dialyzed FBS),AUC of viability dose-response curve (SEM cells [3]; RPMI 5 mM glucose + 10% FBS),AUC of viability dose-response curve (SEM cells [3]; [27]),further results
CCNC(=O)Nc1ccc2ncc(Nc3ccc(C)cc3)nc2n1,129%,120%,115%,113%,118%,109%,113%,108%,110%,68.1%,34.8%,430,453,452,459,465,464,437,418,402,cell viability (SEM cells [1]; [16]): 119%; cell viability (SEM cells [1]; [17]): 139%; cell viability (SEM cells [1]; [18]): 117%; cell viability (SEM cells [1]; [19]): 119%; cell viability (SEM cells [1]; [20]): 124%; cell viability (SEM cells [1]; [21]): 98.3%; cell viability (SEM cells [1]; [22]): 124%; cell viability (SEM cells [1]; [23]): 114%; cell viability (SEM cells [1]; [24]): 93.3%; cell viability (SEM cells [1]; [25]): 59.3%; cell viability (SEM cells [1]; [26]): 21.2%
Nc1cccc2c1C(=O)N(C1CCC(=O)NC1=O)C2=O (configuration not stated),,,,,,,,,,,,462,452,466,436,448,450,462,349,388,cell viability (SEM cells [1]; [16]): 117%; cell viability (SEM cells [1]; [17]): 126%; cell viability (SEM cells [1]; [18]): 103%; cell viability (SEM cells [1]; [19]): 98%; cell viability (SEM cells [1]; [20]): 96.9%; cell viability (SEM cells [1]; [21]): 93.9%; cell viability (SEM cells [1]; [22]): 76.6%; cell viability (SEM cells [1]; [23]): 72.5%; cell viability (SEM cells [1]; [24]): 80.2%; cell viability (SEM cells [1]; [25]): 64.1%; cell viability (SEM cells [1]; [26]): 37.7%
CC(=O)NCC(=O)N1[C@@H]2CC[C@H]1c1ccc(Nc3ncc(C(F)(F)F)c(NC4CCC4)n3)cc12,,,,,,,,,,,,358,344,336,258,268,290,247,227,227,
O=C(O)CC/C=C\CC[C@@H]1[C@@H](N2CCCCC2)[C@@H](O)C[C@@H]1OCc1ccc(-c2ccccc2)cc1,117%,131%,117%,136%,129%,123%,127%,117%,111%,114%,112%,433,441,457,461,457,455,461,456,467,cell viability (P12-Ichikawa [4]; 0.000781 µM): 124%; cell viability (P12-Ichikawa [4]; 0.00234 µM): 131%; cell viability (P12-Ichikawa [4]; 0.00702 µM): 125%; cell viability (P12-Ichikawa [4]; 0.0211 µM): 126%; cell viability (P12-Ichikawa [4]; 0.0632 µM): 116%; cell viability (P12-Ichikawa [4]; 0.19 µM): 119%; cell viability (P12-Ichikawa [4]; 0.569 µM): 131%; cell viability (P12-Ichikawa [4]; 1.71 µM): 129%; cell viability (P12-Ichikawa [4]; 5.12 µM): 107%; cell viability (P12-Ichikawa [4]; 15.4 µM): 108%; cell viability (P12-Ichikawa [4]; 46.1 µM): 109%
Cn1cc(-c2ccc(F)c(C(F)(F)F)c2)nc1C1CCN(c2ncnc3[nH]ncc23)CC1,,,,,,,,,,,,447,447,435,463,444,446,441,461,449,
COc1ccc2c(c1OC)C(=O)O[C@H]2[C@H]1c2c(cc3c(c2OC)OCO3)CCN1C,,,,,,,,,,,,246,273,277,284,277,294,263,233,247,
Clc1ccc(COC(Cn2ccnc2)c2ccc(Cl)cc2Cl)c(Cl)c1 (configuration not stated),121%,120%,112%,123%,104%,115%,114%,124%,99.3%,109%,70%,425,468,452,452,467,419,462,460,449,
C=CCO/N=C(/C[C@H]1O[C@@H]2O[C@]3(C)CC[C@H]4[C@H](C)CC[C@@H]([C@H]1C)[C@@]24OO3)[C@H]1O[C@@H]2O[C@]3(C)CC[C@H]4[C@H](C)CC[C@@H]([C@H]1C)[C@@]24OO3,,,,,,,,,,,,347,340,338,397,357,359,350,329,328,
N#Cc1ccc(C(c2ccc(C#N)cc2)n2cncn2)cc1,121%,118%,131%,130%,40.1%,129%,140%,131%,54.4%,110%,111%,442,450,466,461,460,451,,,,
C[C@H]1O[C@H]([C@H](O)[C@@H]1O)N2\C=C(F)/C(=O)NC2=O,,,,,,,,,,,,441,460,444,443,440,442,460,454,436,
O=c1oc2c(O)c(O)cc3c(=O)oc4c(O)c(O)cc1c4c23,,,,,,,,,,,,455,454,466,444,452,458,471,467,451,
CN(C)/N=N/c1nc[nH]c1C(N)=O,121%,122%,117%,126%,125%,120%,128%,119%,123%,106%,105%,416,435,392,422,410,374,467,462,307,
CCN(CC)C(=O)C1=CC=C(C=C1)C/2=C/C3(CCNCC3)OC4=CC=CC(=C24)O,,,,,,,,,,,,287,329,345,459,449,449,472,464,464,
